Values after ≈ are worked out from the molar mass of the structure shown. Active and inactive are the calls of the source. No cut-off for these calls is given here.
Key:
[1] = system: Mycobacterium tuberculosis; assay: Antitubercular activity against Mycobacterium tuberculosis H37Rv ATCC 25618 under aerobic condition after 5 days; format: functional; settings: H37Rv ATCC 25618, 120 h
[2] = Cytotoxicity against African green monkey Vero cells after 2 days by luminescent assay; format: cell-based; settings: chlorocebus sabaeus, read-out: TC50
[3] = Selectivity index, ratio of TC50 for African green monkey Vero cells to MIC for Mycobacterium tuberculosis H37Rv ATCC 25618
[4] = system: Mycobacterium tuberculosis; assay: Bactericidal activity against replicating Mycobacterium tuberculosis at 1 to 10 times MIC after 21 days; format: functional, organism-based

| SMILES | MIC [1] | CC50 at 48 h [2] | Ratio [3] | Activity [4] |
| --- | --- | --- | --- | --- |
| CCc1nc2cc(OC)ccc2n1CCCCOc1ccccc1 | > 20 µM |  |  |  |
| CCc1nc2ccccc2n1CCCCOc1ccncc1 | > 20 µM | > 50 µM |  |  |
| CCc1nc2ccccc2n1CCCCOCc1ccccc1 | 3.6 µM (≈ 1.11 µg/mL) | 32 µM | 8.9 |  |
| Cc1ccc2nc(C(C)O)n(CCCCOc3ccccc3)c2c1 (stereo not drawn) | 20 µM (≈ 6.49 µg/mL) |  |  |  |
| CCc1nc2ccc(C)cc2n1CCCCNc1ccccc1 | 0.32 µM (≈ 0.0984 µg/mL) | 21 µM | 66 |  |
| CCc1nc2ccccc2n1CCCCOc1ccccc1C(C)C | 20 µM (≈ 6.73 µg/mL) | 19 µM | 0.7 |  |
| CCc1nc2ccccc2n1CCCCOc1ccc(C)c(C)c1 | 0.3 µM (≈ 0.0967 µg/mL) | 14 µM | 53 |  |
| CCc1nc2cc(Cl)cnc2n1CCCCOc1ccccc1 | 6.1 µM (≈ 2.01 µg/mL) | 38 µM | 6.2 |  |
| CCc1nc2ccccc2n1CCCCOc1ccnc2ccccc12 | > 20 µM | > 50 µM |  |  |
| CCc1nc2ccccc2n1CCCCOc1ccccc1C | 0.32 µM (≈ 0.0987 µg/mL) | 16 µM | 50 |  |
| CCc1nc2ccccc2n1CCCCOc1ccc(Cl)cc1F | 1.5 µM (≈ 0.52 µg/mL) | 5.7 µM | 3.8 |  |
| CCc1nc2ccc(Cl)cc2n1CCCCOc1ccccc1 | 7.1 µM (≈ 2.33 µg/mL) | 25 µM | 3.5 |  |
| CCc1nc2ccccc2n1CCOc1ccc(Cl)cc1 | > 20 µM |  |  |  |
| c1ccc(OCCCCn2ncc3ccccc32)cc1 | > 20 µM | > 50 µM |  |  |
| Cc1nc2ccccc2n1CCOc1ccccc1 | > 20 µM |  |  |  |
| c1ccc(OCCCCn2c(-c3ccccc3)nc3ccccc32)cc1 | 16 µM (≈ 5.48 µg/mL) | 19 µM | 1.2 |  |
| CCc1nc2ccc(C)cc2n1CCCOc1ccc(C)c(Cl)c1 | 0.22 µM (≈ 0.0754 µg/mL) | 17 µM | 77 | inactive |
| CCc1nc2ccccc2n1CCCCOc1ccc(C#N)cc1 | 16 µM (≈ 5.11 µg/mL) | 27 µM | 1.7 |  |
| c1ccc(OCCCCn2c(N3CCOCC3)nc3ccccc32)cc1 | 20 µM (≈ 7.03 µg/mL) | 20 µM | 20 |  |
| CCc1nc2ccccc2n1CCCCOc1ccc(C)cc1 | 0.15 µM (≈ 0.0463 µg/mL) | 14 µM | 93 |  |
| CCc1nc2ccccc2n1CCCCOc1ccc(OC)cc1 | 1.2 µM (≈ 0.389 µg/mL) | 21 µM | 27 |  |
| CCc1nc2ccccc2n1CCCCOc1ccccc1Cl | 0.68 µM (≈ 0.224 µg/mL) | 16 µM | 23 |  |

| SMILES | MIC [1] | CC50 at 48 h [2] | Ratio [3] | Activity [4] |
| --- | --- | --- | --- | --- |
| CCc1nc2ccc(C)cc2n1CCCOc1ccc(C)c(C)c1 | 0.22 µM (≈ 0.0709 µg/mL) | 7.3 µM | 33 |  |
| CCc1nc2ccccc2n1CCCCOc1ccc(Cl)cc1Cl | 1.8 µM (≈ 0.654 µg/mL) | 23 µM | 13 |  |
| CCc1nc2ccccc2n1CCCCOc1cccc(Cl)c1 | 0.88 µM (≈ 0.289 µg/mL) | 22 µM | 25 |  |
| CCc1nc2ccccc2n1CCCCOc1ccc(Cl)c(F)c1 | 1.6 µM (≈ 0.555 µg/mL) | 16 µM | 10 |  |
| CCc1nc2ccccc2n1CC1COc2ccccc2O1 (stereo not drawn) | > 20 µM |  |  |  |
| CCc1nc2ccc(C)cc2n1CCCCNc1ccc(C)cc1 | 0.15 µM (≈ 0.0482 µg/mL) | 20 µM | 133 |  |
| CCc1nc2ccncc2n1CCCCOc1ccccc1 | > 20 µM |  |  |  |
| CN1CCN(c2nc3ccccc3n2CCCCOc2ccccc2)CC1 | > 20 µM |  |  |  |
| CCc1nc2ccc(C)cc2n1CCCNc1ccc(Br)c(C)c1 | 0.052 µM (≈ 0.0201 µg/mL) | 27 µM | 523 | inactive |
| Cc1nc2ccccc2n1CCCOc1ccccc1 | > 20 µM | > 50 µM |  |  |
| CCc1nc2ccc(C#N)cc2n1CCCCOc1ccccc1 | > 20 µM | > 20 µM | >20 |  |
| Cc1nc2ccccc2n1CCCCOc1ccccc1 | > 20 µM | > 50 µM |  |  |
| FC(F)(F)c1nc2ccccc2n1CCCCOc1ccccc1 | > 20 µM |  |  |  |
| Nc1nc2ccccc2n1CCCCOc1ccccc1 | > 20 µM |  |  |  |
| CCc1nc2ccccc2n1CCCCOc1cc(C)c(Cl)c([N+](=O)[O-])c1 | 7.9 µM (≈ 3.06 µg/mL) | 18 µM | 19 |  |
| CCc1nc2ccccc2n1CCCCOc1ccc(Cl)cc1 | 1.5 µM (≈ 0.493 µg/mL) | 14 µM | 9.3 |  |
| CCc1cc2ccccc2n1CCCCOc1ccc(C)c(Cl)c1 | > 20 µM |  |  |  |
| CCc1nc2ccccc2n1CCCCOc1cccc(C)c1 | 0.42 µM (≈ 0.13 µg/mL) | 19 µM | 45 |  |
| CCc1nc2ccccc2n1CCCCOc1ccc(C)c(Cl)c1 | 0.23 µM (≈ 0.0789 µg/mL) | 14 µM | 61 |  |
| CCc1nc2ccccc2n1CCCCOc1cccnc1 | > 20 µM | > 50 µM |  |  |
| CCc1nc2cc(C#N)ccc2n1CCCCOc1ccccc1 | > 20 µM | > 20 µM | >20 |  |
| c1ccc(OCCCCn2cnc3ccccc32)cc1 | > 20 µM |  |  |  |

| SMILES | MIC [1] | CC50 at 48 h [2] | Ratio [3] | Activity [4] |
| --- | --- | --- | --- | --- |
| CCc1nc2ccc(C)cc2n1CCCOc1ccc(C)cc1 | 0.27 µM (≈ 0.0833 µg/mL) | 15 µM | 56 |  |
| CCc1nc2ccccc2n1CCOc1ccccc1 | > 20 µM |  |  |  |
| CCc1nc2ccccc2n1CCCCOC | > 20 µM | > 50 µM |  |  |
| CCc1cc2ccccc2n1CCCCSc1nnc(-c2ccc(Cl)cc2)o1 | > 20 µM | > 50 µM |  |  |
| CCc1cc2ccccc2n1CCCCNc1ccc(C)c(Br)c1 | > 20 µM |  |  |  |
| CCc1nc2ccc(C)cc2n1CCCSc1ccc(C)cc1 | 3.3 µM (≈ 1.07 µg/mL) | 12 µM | 3.6 |  |
| CCc1nc2ccccc2n1CCCCOc1ccc(N2CCOCC2)cc1 | > 20 µM | 32 µM |  |  |
| CCc1nc2cnc(C)cc2n1CCCCOc1ccccc1 | 1.5 µM (≈ 0.464 µg/mL) | 71 µM | 47 |  |
| CC(=O)Nc1nc2ccc(C)cc2n1CCCCOc1ccc(C)c(Cl)c1 | 11 µM (≈ 4.24 µg/mL) | 8.3 µM | 0.8 |  |
| CCc1nc2ccccc2n1CCCCOc1ccc(Cl)cc1C | 1.5 µM (≈ 0.514 µg/mL) | 20 µM | 2.3 |  |
| CCc1nc2cnccc2n1CCCCOc1ccccc1 | > 20 µM |  |  |  |
| CCc1nc2ccccc2n1CCCCOc1cc(C)c(CN2CCOCC2)cc1C | 1.3 µM (≈ 0.548 µg/mL) | 48 µM | 15 |  |
| CCc1nc2ccc(C)cc2n1CCCCNc1ccc(C)cc1C | 0.31 µM (≈ 0.104 µg/mL) | 20 µM | 65 |  |
| CCc1nc2ccc(OC)cc2n1CCCCOc1ccccc1 | 0.9 µM (≈ 0.292 µg/mL) | 27 µM | 30 |  |
| Cc1ccc2nc(C(C)O)n(CCCCOc3ccc(C)c(Cl)c3)c2c1 (stereo not drawn) | 11 µM (≈ 4.1 µg/mL) | 8.6 µM | 0.8 |  |
| CCc1nc2ccccc2n1CCCCOc1c(Cl)cccc1Cl | 20 µM (≈ 7.27 µg/mL) | 13 µM | 1.5 |  |
| CCc1nc2ccc(C)cc2n1CCCCNc1ccc(C)c(Br)c1 | 0.11 µM (≈ 0.044 µg/mL) | 12 µM | 109 |  |
| CCc1nc2ccccc2n1CCCCOc1ccc2sc(C)nc2c1 | 1.5 µM (≈ 0.548 µg/mL) | 21 µM | 14 |  |
| Cc1nc2ccccc2n1CCOc1ccc(Cl)cc1 | > 20 µM |  |  |  |
| Clc1nc2ccccc2n1CCCCOc1ccccc1 | > 20 µM |  |  |  |
